In patent US20230151049A1, “Compounds Useful in HIV Therapy” (priority 2020, published 2023):

Assay: in vivo
Conditions: single IM Example 43A 60 mg/kg
Outline: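 Three male Wistar Han rats (200-250 g), not fasted, received a single intramuscular gastrocnemius injection of prodrug suspension at 20 mg/kg EFdA equivalent. Tail-vein blood was taken into NaF/Na2EDTA, mixed 1:1 with 100 mM ammonium acetate pH 4, frozen, and analysed by LC-MS/MS.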

In the case of `C#C[C@]1(COP(=O)(N[C@@H](Cc2ccccc2)C(=O)OCCCCCCCCCCCCCCCCCCCC)Oc2ccccc2)O[C@@H](n2cnc3c(N)nc(F)nc32)C[C@@H]1O` (single isomer, unassigned) [Example 43A], the “Mean concentration of EFdA” value (day 1) is reported as “BQL (BQL = below quantification limit, 0.3 ng/mL for both)”, the “Mean concentration of EFdA” value (day 7) is reported as “BQL (BQL = below quantification limit, 0.3 ng/mL for both)” and the “Mean concentration of EFdA” value (day 14) is reported as “BQL (BQL = below quantification limit, 0.3 ng/mL for both)”. For the same molecule, the “Mean concentration of EFdA” value (day 21) was “BQL (BQL = below quantification limit, 0.3 ng/mL for both)”, the “Mean concentration of EFdA” value (day 28) was “BQL (BQL = below quantification limit, 0.3 ng/mL for both)” and the “Mean concentration of EFdA” value (day 35) was “BQL (BQL = below quantification limit, 0.3 ng/mL for both)”. The “Mean concentration of EFdA” value (day 42) was “BQL (BQL = below quantification limit, 0.3 ng/mL for both)”, the “Mean concentration of EFdA” value (day 49) was “BQL (BQL = below quantification limit, 0.3 ng/mL for both)” and the “Mean concentration of EFdA” value (day 56) was “BQL (BQL = below quantification limit, 0.3 ng/mL for both)”. The “Mean concentration of EFdA” value (day 63) was “BQL (BQL = below quantification limit, 0.3 ng/mL for both)”, the “Mean concentration of EFdA” value (day 70) was “BQL (BQL = below quantification limit, 0.3 ng/mL for both)” and the “Mean concentration of EFdA” value (day 77) was “BQL (BQL = below quantification limit, 0.3 ng/mL for both)”. The “Mean concentration of EFdA” value (day 84) was “BQL (BQL = below quantification limit, 0.3 ng/mL for both)”, the concentration at 1 day (male, Wistar Han, rat, in vivo, day 1, read-out: Mean concentration of Example 43A) was 89.3 ng/mL and the concentration at 7 day (male, Wistar Han, rat, in vivo, day 7, read-out: Mean concentration of Example 43A) was 25.4 ng/mL. It also gave a concentration at 14 day (male, Wistar Han, rat, in vivo, day 14, read-out: Mean concentration of Example 43A) of 22.7 ng/mL, a concentration at 21 day (male, Wistar Han, rat, in vivo, day 21, read-out: Mean concentration of Example 43A) of 22.1 ng/mL and a concentration at 28 day (male, Wistar Han, rat, in vivo, day 28, read-out: Mean concentration of Example 43A) of 11.3 ng/mL. For the same molecule, the concentration at 35 day (male, Wistar Han, rat, in vivo, day 35, read-out: Mean concentration of Example 43A) was 12.7 ng/mL, the concentration at 42 day (male, Wistar Han, rat, in vivo, day 42, read-out: Mean concentration of Example 43A) was 10.4 ng/mL and the concentration at 49 day (male, Wistar Han, rat, in vivo, day 49, read-out: Mean concentration of Example 43A) was 7.22 ng/mL. For the same molecule, the concentration at 56 day (male, Wistar Han, rat, in vivo, day 56, read-out: Mean concentration of Example 43A) was 8.67 ng/mL, the concentration at 63 day (male, Wistar Han, rat, in vivo, day 63, read-out: Mean concentration of Example 43A) was 12.5 ng/mL and the concentration at 70 day (male, Wistar Han, rat, in vivo, day 70, read-out: Mean concentration of Example 43A) was 13.1 ng/mL. It also gave a concentration at 77 day (male, Wistar Han, rat, in vivo, day 77, read-out: Mean concentration of Example 43A) of 13.5 ng/mL and a concentration at 84 day (male, Wistar Han, rat, in vivo, day 84, read-out: Mean concentration of Example 43A) of 7.94 ng/mL.
